The term IC50 denotes the concentration that inhibits the measured activity by half. The term Papp A→B denotes the apparent permeability from the apical to the basolateral side of a cell layer. The efflux ratio is the permeability from basolateral to apical divided by that in the opposite direction, in the common usage.

Each structure is given as a SMILES string.

QPCT, sequence (Q16769 29-361): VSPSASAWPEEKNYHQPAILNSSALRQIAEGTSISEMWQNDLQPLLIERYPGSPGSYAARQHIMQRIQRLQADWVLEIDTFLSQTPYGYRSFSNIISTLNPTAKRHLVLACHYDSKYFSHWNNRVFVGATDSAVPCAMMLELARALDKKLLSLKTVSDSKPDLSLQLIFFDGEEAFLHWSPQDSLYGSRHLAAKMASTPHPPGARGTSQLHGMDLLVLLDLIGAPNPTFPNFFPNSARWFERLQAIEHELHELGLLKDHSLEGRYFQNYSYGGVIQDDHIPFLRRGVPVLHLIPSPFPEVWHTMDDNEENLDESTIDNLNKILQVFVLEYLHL

In the first data set the target is QPCTL (Homo sapiens (Human), UniProt Q9NXS2). The data set can be described thus: Assay A: biochemical QPCTL activity assay (MALDI-TOF MS). To be noted: compounds of the invention, Table 2; read-out: Inhibition of QPCTL: IC50. The protocol: (§1) QPCT or QPCTL dependent conversion of N-terminal glutamine to pyroglutamate of CD47 was monitored via MALDI-TOF MS. Test compounds were dissolved in 100% DMSO and serially diluted into clear 1,536-well microtiter plates. Enzymatic reactions were set up in assay buffer containing 20 mM Tris pH 7.5, 0.1 mM TCEP, 0.01% BSA, and 0.001% Tween20. […] The plates were incubated for 10 min in a humidified incubator at 24° C. Subsequently, 2.5 μL of CD47 peptide substrate surrogate (^19[…]^33) was added to each well (final concentration: 10 μM for QPCTL/20 μM for QPCT). The plates were mixed for 30 sec at 1,000 rpm and subsequently incubated for 40 min in a humidified incubator at 24° C. […] The plates were sealed with an adhesive foil, mixed for 30 s at 1,000 rpm and stored at room temperature until preparation of the MALDI target plates. […] QPCT or QPCTL activity was monitored by calculating the ratio between product and internal standard signals followed by normalization to high (100% activity) and low (0% activity) controls. Determination of compound potencies was obtained by fitting the dose-response data to a four-parameter logistical equation.
QPCTL, sequence (Q9NXS2 whole entry): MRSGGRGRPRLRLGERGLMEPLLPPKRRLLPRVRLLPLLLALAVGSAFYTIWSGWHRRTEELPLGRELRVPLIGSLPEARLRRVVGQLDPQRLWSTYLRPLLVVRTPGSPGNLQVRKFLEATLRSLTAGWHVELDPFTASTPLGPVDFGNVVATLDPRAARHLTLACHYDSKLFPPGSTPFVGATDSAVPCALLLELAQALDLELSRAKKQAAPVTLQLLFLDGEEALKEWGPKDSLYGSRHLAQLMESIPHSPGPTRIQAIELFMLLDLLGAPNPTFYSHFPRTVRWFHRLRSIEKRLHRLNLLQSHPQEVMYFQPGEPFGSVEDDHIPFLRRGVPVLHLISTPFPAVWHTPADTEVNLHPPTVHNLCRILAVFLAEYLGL
On to `Cn1cnnc1C1CCN(c2c(C#N)cccc2-c2cnc3nsnc3c2)CC1` [compound 43], for which the IC50 turned out to be 3 nM.

Consider `COc1cc(F)ncc1-c1cccc(C#N)c1N1CCC(c2nncn2C)CC1` [compound 44], for which the IC50 came to 4 nM.

On to `Cn1nc2cc(-c3cccc(C#N)c3N3CCC(c4nncn4C)CC3)cnc2n1` [compound 45], for which the IC50 was determined as 4 nM.

For the compound `Cc1c(-c2cccc(C#N)c2N2CCC(c3nncn3C)CC2)cncc1-n1cccn1` [compound 46], the IC50 worked out at 2 nM.

As to `Cn1cnnc1C1CCN(c2c(C#N)cccc2-c2cnc(F)c(OC3CC3)c2)CC1` [compound 47], the IC50 was 2 nM.

In the case of `COc1cc(-c2cccc(C#N)c2N2CCC(c3nncn3C)CC2)cnn1` [compound 48], the IC50 stood at 7 nM.

Regarding `COc1cc(-c2cccc(C#N)c2N2CCC(c3nncn3C)CC2)cnc1F` [compound 49], the IC50 amounted to 2 nM.

Turning to `Cn1cnnc1C1CCN(c2c(C#N)cccc2-c2cnc3nn(C(C)(C)C)cc3c2)CC1` [compound 50], the IC50 stood at 1 nM.

For `Cc1cc(C)n(-c2cncc(-c3cccc(C#N)c3N3CCC(c4nncn4C)CC3)c2)n1` [compound 51], the IC50 turned out to be 2 nM.

As for `Cn1cnnc1C1(F)CCN(c2c(C#N)cccc2-c2ccnnc2)CC1` [compound 52], the IC50 came out at 2 nM.

A further data set has as its target QPCT (Homo sapiens (Human), UniProt Q16769). The experiment in a line: Assay A: biochemical QPCT activity assay (MALDI-TOF MS). To be noted: compounds of the invention, Table 2; read-out: Inhibition of QPCT: IC50. The procedure:
as §1
With `Cn1cnnc1C1CCN(c2c(C#N)cccc2-c2cnc3nsnc3c2)CC1` [compound 43], the IC50 was determined as 28 nM.

As to `COc1cc(F)ncc1-c1cccc(C#N)c1N1CCC(c2nncn2C)CC1` [compound 44], the IC50 turned out to be 18 nM.

With `Cn1nc2cc(-c3cccc(C#N)c3N3CCC(c4nncn4C)CC3)cnc2n1` [compound 45], the IC50 worked out at 26 nM.

Regarding `Cc1c(-c2cccc(C#N)c2N2CCC(c3nncn3C)CC2)cncc1-n1cccn1` [compound 46], the IC50 stood at 13 nM.

As to `Cn1cnnc1C1CCN(c2c(C#N)cccc2-c2cnc(F)c(OC3CC3)c2)CC1` [compound 47], the half-maximal inhibitory concentration (IC50) amounted to 8 nM.

As to `COc1cc(-c2cccc(C#N)c2N2CCC(c3nncn3C)CC2)cnn1` [compound 48], the IC50 was 22 nM.

On to `COc1cc(-c2cccc(C#N)c2N2CCC(c3nncn3C)CC2)cnc1F` [compound 49], for which the IC50 was determined as 9 nM.

Regarding `Cn1cnnc1C1CCN(c2c(C#N)cccc2-c2cnc3nn(C(C)(C)C)cc3c2)CC1` [compound 50], the IC50 turned out to be 1 nM.

As to `Cc1cc(C)n(-c2cncc(-c3cccc(C#N)c3N3CCC(c4nncn4C)CC3)c2)n1` [compound 51], the IC50 is 8 nM.

For `Cn1cnnc1C1(F)CCN(c2c(C#N)cccc2-c2ccnnc2)CC1` [compound 52], the IC50 stood at 3 nM.

The subject of another data set is SIRPα signalling induced by Raji cells. The experiment in a line: Assay B: SIRPα signalling assay using Raji cells. Format: cell-based, human. Particulars: Homo sapiens, compounds of the invention, Table 4, read-out: Inhibition of SIRα signalling induced by Raji cells: IC50. The procedure: Bioassay reagent 1 of the PathHunter Bioassay detection kit (DiscoverX 93-0001) was added to each well of the plate using a multichannel pipette followed by a 15 min incubation at room temperature. Afterwards bioassay reagent 2 was added followed by 60 min incubation at room temperature (incubation in the dark).
The analysis of the data was performed using the luminescence signal generated by beta-galactosidase in the PathHunter reporter cell line. The luminescence measurement was done using a Pherastar Multi-Mode Reader.
On to `Cn1cnnc1C1CCN(c2c(C#N)cccc2-c2cnc3nsnc3c2)CC1` [compound 43], for which the IC50 was 342 nM.

Turning to `COc1cc(F)ncc1-c1cccc(C#N)c1N1CCC(c2nncn2C)CC1` [compound 44], the IC50 stood at 109 nM.

For the compound `Cn1nc2cc(-c3cccc(C#N)c3N3CCC(c4nncn4C)CC3)cnc2n1` [compound 45], the IC50 was 140 nM.

On to `Cc1c(-c2cccc(C#N)c2N2CCC(c3nncn3C)CC2)cncc1-n1cccn1` [compound 46], for which the IC50 came to 97 nM.

Consider `Cn1cnnc1C1CCN(c2c(C#N)cccc2-c2cnc(F)c(OC3CC3)c2)CC1` [compound 47], for which the IC50 worked out at 77 nM.

On to `COc1cc(-c2cccc(C#N)c2N2CCC(c3nncn3C)CC2)cnn1` [compound 48], for which the IC50 is 446 nM.

In the case of `COc1cc(-c2cccc(C#N)c2N2CCC(c3nncn3C)CC2)cnc1F` [compound 49], the IC50 amounted to 63 nM.

Take `Cn1cnnc1C1CCN(c2c(C#N)cccc2-c2cnc3nn(C(C)(C)C)cc3c2)CC1` [compound 50]: the IC50 was found to be 21 nM.

`Cc1cc(C)n(-c2cncc(-c3cccc(C#N)c3N3CCC(c4nncn4C)CC3)c2)n1` [compound 51]: the IC50 is 148 nM.

Turning to `Cn1cnnc1C1(F)CCN(c2c(C#N)cccc2-c2ccnnc2)CC1` [compound 52], the IC50 was 67 nM.

For another data set, the system named is SIRPα signalling induced by A549 cells. The data set can be described thus: Assay B: SIRPα signalling assay using A549 cells. Format: cell-based, human. To be noted: Homo sapiens, compounds of the invention, Table 4, read-out: Inhibition of SIRα signalling induced by A549 cells: IC50. The procedure:
Two cell types are independently used: the Raji cell line (lymphoblastlike human cell line derived from B lymphocytes from a Burkitt's lymphoma patient in 1963) and A549 cells (adenocarcinomic human alveolar basal epithelial cells).
Test compounds were dissolved in 100% DMSO and serially diluted into a white 384-well microtiter cell culture plate (PerkinElmer #60076780 in case of Raji assay; PDL-coated plates Greiner #781945 in case of A549 assay). 5000 Raji cells (ATCC #CC86) or 5000 A549 cells (ATCC #CCL-185) in Assay Complete Cell Plating reagent 30 (DiscoverX 93-0563R30B) were added per well. The assay plate was incubated for 48 h at 37° C., 95% humidity and 5% CO2. 15000 reporter cells (Jurkat PathHunter SIRPα V1, DiscoverX #93-1135C19) were added to each well, and the plate was incubated for 5 h at 37° C., 95% humidity and 5% CO2. Bioassay reagent 1 of the PathHunter Bioassay detection kit (DiscoverX 93-0001) was added to each well of the plate using a multichannel pipette followed by a 15 min incubation at room temperature. Afterwards bioassay reagent 2 was added followed by 60 min incubation at room temperature (incubation in the dark).
The analysis of the data was performed using the luminescence signal generated by beta-galactosidase in the PathHunter reporter cell line. The luminescence measurement was done using a Pherastar Multi-Mode Reader. Dose-response curves & IC50 data were calculated with 4-parameter sigmoidal dose response formula.
Consider `Cn1cnnc1C1CCN(c2c(C#N)cccc2-c2cnc3nsnc3c2)CC1` [compound 43], for which the IC50 was determined as 271 nM.

With `COc1cc(F)ncc1-c1cccc(C#N)c1N1CCC(c2nncn2C)CC1` [compound 44], the IC50 amounted to 121 nM.

On to `Cn1nc2cc(-c3cccc(C#N)c3N3CCC(c4nncn4C)CC3)cnc2n1` [compound 45], for which the IC50 turned out to be 173 nM.

Take `Cc1c(-c2cccc(C#N)c2N2CCC(c3nncn3C)CC2)cncc1-n1cccn1` [compound 46]: the IC50 turned out to be 71 nM.

In the case of `Cn1cnnc1C1CCN(c2c(C#N)cccc2-c2cnc(F)c(OC3CC3)c2)CC1` [compound 47], the IC50 is 53 nM.

Take `COc1cc(-c2cccc(C#N)c2N2CCC(c3nncn3C)CC2)cnn1` [compound 48]: the IC50 is 674 nM.

As for `COc1cc(-c2cccc(C#N)c2N2CCC(c3nncn3C)CC2)cnc1F` [compound 49], the IC50 stood at 56 nM.

As for `Cn1cnnc1C1CCN(c2c(C#N)cccc2-c2cnc3nn(C(C)(C)C)cc3c2)CC1` [compound 50], the IC50 amounted to 33 nM.

As to `Cc1cc(C)n(-c2cncc(-c3cccc(C#N)c3N3CCC(c4nncn4C)CC3)c2)n1` [compound 51], the IC50 amounted to 52 nM.

In the case of `Cn1cnnc1C1(F)CCN(c2c(C#N)cccc2-c2ccnnc2)CC1` [compound 52], the IC50 worked out at 16 nM.

System in a further data set: not listed separately
The experiment in a line: Assay C: permeability in CACO-2 cells. Particulars: human, pH 7.2; Caco-2, apical to basolateral; compounds of the invention, Table 7. Format: in vitro ADME. The procedure: Compounds are dissolved in appropriate solvent (like DMSO, 1-20 mM stock solutions). […] The transport solution (TL) is applied to the apical or basolateral donor side for measuring A-B or B-A permeability (3 filter replicates), respectively. Samples are collected at the start and end of experiment from the donor and at various time intervals for up to 2 hours also from the receiver side for concentration measurement by HPLC-MS/MS or scintillation counting. Sampled receiver volumes are replaced with fresh receiver solution.
On the technique in general: Caco-2 cells form a polarised layer with tight junctions and transporters.
As for `Cn1cnnc1C1CCN(c2c(C#N)cccc2-c2cnc3nsnc3c2)CC1` [compound 43], the Papp A→B was 2.2 ×10⁻⁶ cm/s.

For the compound `COc1cc(F)ncc1-c1cccc(C#N)c1N1CCC(c2nncn2C)CC1` [compound 44], the Papp A→B was determined as 11 ×10⁻⁶ cm/s.

As to `Cn1nc2cc(-c3cccc(C#N)c3N3CCC(c4nncn4C)CC3)cnc2n1` [compound 45], the Papp A→B was 0.8 ×10⁻⁶ cm/s.

Consider `Cc1c(-c2cccc(C#N)c2N2CCC(c3nncn3C)CC2)cncc1-n1cccn1` [compound 46], for which the Papp A→B is 6.8 ×10⁻⁶ cm/s.

Consider `Cn1cnnc1C1CCN(c2c(C#N)cccc2-c2cnc(F)c(OC3CC3)c2)CC1` [compound 47], for which the Papp A→B is 13 ×10⁻⁶ cm/s. Against the preceding compound, the Papp A→B is about 1.9-fold higher.

Turning to `COc1cc(-c2cccc(C#N)c2N2CCC(c3nncn3C)CC2)cnn1` [compound 48], the Papp A→B was determined as 1.1 ×10⁻⁶ cm/s. Compared with the last compound, the Papp A→B is about 12-fold lower.

Take `COc1cc(-c2cccc(C#N)c2N2CCC(c3nncn3C)CC2)cnc1F` [compound 49]: the apical-to-basolateral permeability (Papp A→B) turned out to be 18 ×10⁻⁶ cm/s.

Compound `Cn1cnnc1C1CCN(c2c(C#N)cccc2-c2cnc3nn(C(C)(C)C)cc3c2)CC1` [compound 50] had a Papp A→B of 0.5 ×10⁻⁶ cm/s.

`Cc1cc(C)n(-c2cncc(-c3cccc(C#N)c3N3CCC(c4nncn4C)CC3)c2)n1` [compound 51] displayed a Papp A→B of 3.4 ×10⁻⁶ cm/s.

`Cn1cnnc1C1(F)CCN(c2c(C#N)cccc2-c2ccnnc2)CC1` [compound 52] displayed a Papp A→B of 15 ×10⁻⁶ cm/s. Compared with the last compound, the Papp A→B is about 4.4-fold higher.

The data set is the same for the next values; noted with them: human, pH 7.2; Caco-2; compounds of the invention, Table 7.
On to `Cn1cnnc1C1CCN(c2c(C#N)cccc2-c2cnc3nsnc3c2)CC1` [compound 43], for which the efflux ratio was 22.3.

On to `COc1cc(F)ncc1-c1cccc(C#N)c1N1CCC(c2nncn2C)CC1` [compound 44], for which the efflux ratio was determined as 1.5.

In the case of `Cn1nc2cc(-c3cccc(C#N)c3N3CCC(c4nncn4C)CC3)cnc2n1` [compound 45], the efflux ratio was 31.6.

As for `Cc1c(-c2cccc(C#N)c2N2CCC(c3nncn3C)CC2)cncc1-n1cccn1` [compound 46], the efflux ratio came to 2.5.

With `Cn1cnnc1C1CCN(c2c(C#N)cccc2-c2cnc(F)c(OC3CC3)c2)CC1` [compound 47], the efflux ratio worked out at 6.

Turning to `COc1cc(-c2cccc(C#N)c2N2CCC(c3nncn3C)CC2)cnn1` [compound 48], the efflux ratio was 21.8.

For the compound `COc1cc(-c2cccc(C#N)c2N2CCC(c3nncn3C)CC2)cnc1F` [compound 49], the efflux ratio is 3.6.

Consider `Cn1cnnc1C1CCN(c2c(C#N)cccc2-c2cnc3nn(C(C)(C)C)cc3c2)CC1` [compound 50], for which the efflux ratio was 75.5.

`Cc1cc(C)n(-c2cncc(-c3cccc(C#N)c3N3CCC(c4nncn4C)CC3)c2)n1` [compound 51]: the efflux ratio was determined as 12.9.

In the case of `Cn1cnnc1C1(F)CCN(c2c(C#N)cccc2-c2ccnnc2)CC1` [compound 52], the efflux ratio was 1.1.
